Several values for one entry are separate records, joined by “and”; a condition that tells them apart may be missing. Identical values can stand only once.
Settings: for vapor or sublimation pressure: Closed cell (Static) method; for mass density: Fluid (supercritical or subcritical phases), isochoric method

N [ammonia]
Settings | Critical density [kg/m3] | Critical temperature [K] | mass density | vapor or sublimation pressure
310 K, Liquid | – | – | – | 1423.6 kPa [middle of 6 runs]
350 K, Liquid | – | – | – | 3867 kPa [middle of 5 runs]
400 K, Liquid | – | – | – | 10303 kPa [middle of 4 runs]
404.5 K, Liquid | – | – | – | 11148 kPa and 11151 kPa and 11150 kPa
405.5 K, Liquid | – | – | – | 11343 kPa
405.53 K, Liquid | – | – | – | 11351 kPa
405.54 K, Liquid | – | – | – | 11352 kPa and 11354 kPa and 11353 kPa
405.55 K, 11351 kPa | – | – | 235.01 kg/m3 | –
405.55 K, 11355 kPa | – | – | 249.99 kg/m3 | –
405.55 K, 11359 kPa | – | – | 255.19 kg/m3 | –
405.55 K, Liquid | – | – | – | 11356 kPa [middle of 5 runs]
405.56 K, 11355 kPa | – | – | 242.91 kg/m3 and 244.06 kg/m3 | –
405.56 K, 11356 kPa | – | – | 241.93 kg/m3 and 242.97 kg/m3 | –
405.56 K, 11357 kPa | – | – | 244.01 kg/m3 | –
405.56 K, 11358 kPa | – | – | 244.95 kg/m3 and 243.49 kg/m3 | –
405.56 K, 11359 kPa | – | – | 244 kg/m3 | –
405.57 K, 11358 kPa | – | – | 242.95 kg/m3 | –
405.57 K, 11360 kPa | – | – | 241.94 kg/m3 and 244.1 kg/m3 and 245.04 kg/m3 | –
405.57 K, 11361 kPa | – | – | 243.96 kg/m3 | –
405.57 K, 11370 kPa | – | – | 242.83 kg/m3 | –
405.58 K, 11360 kPa | – | – | 243.01 kg/m3 | –
405.58 K, 11362 kPa | – | – | 242.02 kg/m3 and 244.08 kg/m3 and 244.99 kg/m3 | –
405.6 K, 11355 kPa | – | – | 224.92 kg/m3 | –
405.6 K, 11356 kPa | – | – | 229.9 kg/m3 | –
405.6 K, 11362 kPa | – | – | 235.14 kg/m3 | –
405.6 K, 11363 kPa | – | – | 239.9 kg/m3 | –
405.6 K, 11367 kPa | – | – | 245.12 kg/m3 | –
Liquid, Visual observation in an unstirred cell | – | 405.56 | – | –
Liquid, metal-bellows volumometer | 244 | – | – | –
